Measured values published in paper PMC6277767, “Broad and Region-Specific Impacts of the Synthetic Cannabinoid CP 55,940 in Adolescent and Adult Female Mouse Brains” (Frontiers in Molecular Neuroscience, 2018).

Test system: CD1 female mouse brain lipidome
Test: Brain-region lipid levels (HPLC/MS/MS lipidomics) 2 h after single i.p. 3 mg/kg CP 55,940 vs vehicle
Type: in vivo
Parameters: N-arachidonoyl phenylalanine level, Mean / N-stearoyl tryptophan level, Mean / N-stearoyl proline level, Mean / N-stearoyl leucine level, Mean / N-stearoyl phenylalanine level, Mean / N-stearoyl serine level, Mean / N-stearoyl methionine level, Mean: unit: moles per gram
Settings: thalamus
Experimental: The Bloomington Institutional Animal Care and Use Committee of Indiana University reviewed and approved the animal procedures. Female mice from the CD1 strain were utilized to match our study examining THC’s effects on the brain lipidome ([Leishman et al., 2018]). Mice were given a single i.p. injection of either 3 mg/kg CP or 1:1:18 cremophor:ethanol:saline vehicle (please refer to the section “3 mg/kg CP Is Relevant for Synthetic Cannabinoid Abuse and Has Stronger Effects on the Female Mouse Brain Lipidome During Adolescence” for a justification of dose and use of female mice). Three different age groups were given injections: PND 35 and PND 50 adolescents, and adult mice (PND 113). At least eight mice in each age group received CP and at least eight received vehicle. Matching the THC study time course ([Leishman et al., 2018]), mice were sacrificed via rapid decapitation 2 h after injection. Brains were immediately removed and flash-frozen in liquid nitrogen, and then stored at -80°C until dissections were performed. Brains were dissected on an ice-cold dissection plate into the following regions: STR, HIPP, CER, THAL, CTX, HYP, MID, and STEM. These abbreviations for these brain areas will be used exclusively when discussing the results generated by these specific dissections. Each dissected area was immediately placed in liquid nitrogen and then stored at -80°C until used for lipid extraction.
Tissue extracts were performed as previously described ([Bradshaw et al., 2006]; [Stuart et al., 2013]; [Raboune et al., 2014]; [Leishman et al., 2016a],[b], [2017], [2018]). First, samples were shock frozen in liquid nitrogen, weighed, and transferred to a centrifuge tube. The mass of the largest sample was multiplied by 50 to determine how many milliliters of HPLC-grade methanol (Fisher, Fair Lawn, NJ, United States) to add. Then, samples were spiked with 500 pmol deuterium-labeled NAGly (d8NAGly; Cayman Chemical, Ann Arbor, MI, United States). Samples were placed on ice in darkness for 2 h then individually homogenized and centrifuged at 19,000 × g for 20 min at 20°C. Supernatants were diluted with HPLC water (purified in house) to make a solution of 75% water, 25% supernatant. Lipids were partially purified on C18 solid phase extraction columns (Agilent, Palo Alto, CA, United States). A series of four elutions with 1.5 mL of 60%, 75%, 85%, and 100% methanol were collected ([Stuart et al., 2013]; [Leishman et al., 2016a],[b], [2018]).
As previously described ([Bradshaw et al., 2006]; [Tan et al., 2006]; [Smoum et al., 2010]; [Stuart et al., 2013]; [Tortoriello et al., 2013]; [Raboune et al., 2014]; [Leishman et al., 2016a],[b], [2017], [2018]), samples were analyzed using an Applied Biosystems API 3000 triple quadrupole mass spectrometer with electrospray ionization (Foster City, CA, United States). Using an Agilent XDB-C18 reversed phase analytical column and optimized mobile phase gradients, 20 μL from each elution were chromatographed. Two Shimadzu 10ADvp pumps (Columbia, MD, United States) provided the pressure for gradient elution. Mobile phase A: 20% methanol, 80% water (v/v) and 1 mM ammonium acetate (Sigma, St. Louis, MO, United States). Mobile phase B: 100% methanol, 1 mM ammonium acetate. Every method run began with 0% mobile phase B, reached 100% mobile phase B flowing at 0.2 mL/min, and gradually returned to 0% mobile phase B.
This screening library will be referred to as the lipidome when discussing data from this study. HPLC/MS/MS data were analyzed using Analyst software (Applied Biosystems) ([Bradshaw et al., 2006]; [Tan et al., 2006]; [Stuart et al., 2013]; [Tortoriello et al., 2013]; [Raboune et al., 2014]; [Leishman et al., 2016a],[b], [2017], [2018]). Chromatograms (Supplementary Figure 3) were generated by determining the retention time of analytes from the analytical column with a [M-1] or [M+1] parent peak and a fragmentation peak corresponding to the programmed values. […]

[1] = PND 50 female mice, 3 mg/kg CP 55,940
[2] = WT adult female mice, 3mg/kg CP 55,940

SMILES: CCCCCCC(C)(C)c1ccc([C@@H]2C[C@H](O)CC[C@H]2CCCO)c(O)c1 [CP 55,940]
- N-palmitoyl serine: Direction (relative to Veh) (PND 50, 3 mg/kg CP 55,940): ↓
- N-palmitoyl serine: Magnitude (x Veh level) (PND 50, 3 mg/kg CP 55,940): 0.82 x Veh level
- N-stearoyl serine: Direction (relative to Veh) (PND 50, 3 mg/kg CP 55,940): ↓
- N-stearoyl serine: Magnitude (x Veh level) (PND 50, 3 mg/kg CP 55,940): 0.87 x Veh level
- Oleic acid: Direction (relative to Veh) (PND 50, 3 mg/kg CP 55,940): ↓
- Oleic acid: Magnitude (x Veh level) (PND 50, 3 mg/kg CP 55,940): 0.83 x Veh level
- PGE2: Direction (relative to Veh) (PND 50, 3 mg/kg CP 55,940): ↓
- PGE2: Magnitude (x Veh level) (PND 50, 3 mg/kg CP 55,940): 0.74 x Veh level
- PGF2α: Direction (relative to Veh) (PND 50, 3 mg/kg CP 55,940): ↓
- PGF2α: Magnitude (x Veh level) (PND 50, 3 mg/kg CP 55,940): 0.84 x Veh level
- 2-arachidonoyl glycerol level, Mean [1]: 2.19E-10
- 2-linoleoyl glycerol level, Mean [1]: 2.06E-10
- 2-oleoyl glycerol level, Mean [1]: 2.79E-09
- 2-palmitoyl glycerol level, Mean [1]: 1.02E-09
- 6-ketoPGF1α level, Mean [1]: 1.21E-11
- 11-OH-THC level, Mean [1]: BDL
- 11-nor-9-carboxyTHC level, Mean [1]: BDL
- Arachidonic acid level, Mean [1]: 3.32E-10
- Cannabidiol level, Mean [1]: BDL
- Linoleic acid level, Mean [1]: 2.28E-10
- N- stearoyl valine level, Mean [1]: 1.2E-13
- N-arachidonoyl GABA level, Mean [1]: 1.06E-11
- N-arachidonoyl dopamine level, Mean [1]: BDL
- N-arachidonoyl ethanolamine level, Mean [1]: 3.67E-11
- N-arachidonoyl glycine level, Mean [1]: 2.22E-12
- N-arachidonoyl phenylalanine level, Mean [1]: 2.35E-13
- N-arachidonoyl proline level, Mean [1]: BDL
- N-arachidonoyl serine level, Mean [1]: 9.47E-12
- N-arachidonoyl taurine level, Mean [1]: 2.48E-11
- N-arachidonoyl tryptophan level, Mean [1]: BDL
- N-arachidonoyl tyrosine level, Mean [1]: 3.46E-13
- N-docosahexaenoyl GABA level, Mean [1]: 1.17E-12
- N-docosahexaenoyl ethanolamine level, Mean [1]: 4.85E-11
- N-docosahexaenoyl glycine level, Mean [1]: 2.76E-13
- N-docosahexaenoyl leucine level, Mean [1]: 1.83E-13
- N-docosahexaenoyl proline level, Mean [1]: BDL
- N-docosahexaenoyl serine level, Mean [1]: 1.8E-11
- N-docosahexaenoyl tryptophan level, Mean [1]: BDL
- N-docosahexaenoyl tyrosine level, Mean [1]: 5.89E-13
- N-docosahexaenoyl valine level, Mean [1]: BDL
- N-linoleoyl GABA level, Mean [1]: 6.3E-13
- N-linoleoyl ethanolamine level, Mean [1]: 5.72E-11
- N-linoleoyl glycine level, Mean [1]: 1.48E-13
- N-linoleoyl leucine level, Mean [1]: 4.17E-14
- N-linoleoyl proline level, Mean [1]: BDL
- N-linoleoyl serine level, Mean [1]: 6.59E-11
- N-linoleoyl tryptophan level, Mean [1]: BDL
- N-linoleoyl valine level, Mean [1]: BDL
- N-nervonoyl valine level, Mean [1]: BDL
- N-oleoyl GABA level, Mean [1]: 4.02E-12
- N-oleoyl alanine level, Mean [1]: 7.11E-13
- N-oleoyl dopamine level, Mean [1]: BDL
- N-oleoyl ethanolamine level, Mean [1]: 9.26E-11
- N-oleoyl glycine level, Mean [1]: 1.74E-12
- N-oleoyl leucine level, Mean [1]: 5.99E-13
- N-oleoyl methionine level, Mean [1]: 2.91E-13
- N-oleoyl phenylalanine level, Mean [1]: 9.22E-13
- N-oleoyl proline level, Mean [1]: BDL
- N-oleoyl serine level, Mean [1]: 1.27E-10
- N-oleoyl tryptophan level, Mean [1]: BDL
- N-oleoyl tyrosine level, Mean [1]: 4.03E-13
- N-palmitoyl GABA level, Mean [1]: 1.06E-11
- N-palmitoyl alanine level, Mean [1]: 2.52E-12
- N-palmitoyl ethanolamine level, Mean [1]: 7.34E-11
- N-palmitoyl glycine level, Mean [1]: 9.61E-12
- N-palmitoyl leucine level, Mean [1]: 1.53E-12
- N-palmitoyl methionine level, Mean [1]: 1.27E-12
- N-palmitoyl phenylalanine level, Mean [1]: 1.34E-12
- N-palmitoyl proline level, Mean [1]: BDL
- N-palmitoyl serine level, Mean [1]: 2.63E-11
- N-palmitoyl tryptophan level, Mean [1]: BDL
- N-palmitoyl tyrosine level, Mean [1]: 8.81E-13
- N-palmitoyl valine level, Mean [1]: 1.92E-13
- N-stearoyl GABA level, Mean [1]: 1.06E-11
- N-stearoyl alanine level, Mean [1]: 5.6E-13
- N-stearoyl ethanolamine level, Mean [1]: 3.31E-11
- N-stearoyl glycine level, Mean [1]: 1.16E-12
- N-stearoyl leucine level, Mean [1]: 1.04E-12
- N-stearoyl methionine level, Mean [1]: 8.73E-13
- N-stearoyl phenylalanine level, Mean [1]: 1.21E-12
- N-stearoyl proline level, Mean [1]: BDL
- N-stearoyl serine level, Mean [1]: 4.06E-11
- N-stearoyl tryptophan level, Mean [1]: BDL
- N-stearoyl tyrosine level, Mean [1]: 1.18E-13
- Oleic acid level, Mean [1]: 3.18E-10
- PGE2 level, Mean [1]: 8.74E-11
- THC level, Mean [1]: BDL
- 2-arachidonoyl glycerol level, Mean [2]: 3E-09
- 2-linoleoyl glycerol level, Mean [2]: 2.71E-10
- 2-oleoyl glycerol level, Mean [2]: 3.61E-09
- 2-palmitoyl glycerol level, Mean [2]: 8.84E-11
- 6-ketoPGF1α level, Mean [2]: 3.33E-11
- Arachidonic acid level, Mean [2]: 9.32E-10
- Linoleic acid level, Mean [2]: 4.92E-10
- N-arachidonoyl GABA level, Mean [2]: 2.04E-11
- N-arachidonoyl alanine level, Mean [2]: 9.44E-13
- N-arachidonoyl ethanolamine level, Mean [2]: 1.69E-11
- N-arachidonoyl glycine level, Mean [2]: 5.38E-13
- N-arachidonoyl phenylalanine level, Mean [2]: 1.15E-13
- N-arachidonoyl taurine level, Mean [2]: 5.3E-11
- N-arachidonoyl tyrosine level, Mean [2]: 6.37E-13
- N-docosahexaenoyl GABA level, Mean [2]: 9.36E-12
